Test results taken from ChEMBL document CHEMBL4706498, “Rosuvastatin based novel 3-substituted isocoumarins / 3-alkylidenephthalides: Ultrasound assisted synthesis and identification of new anticancer agents” (Eur J Med Chem, 2020).
pIC50: −log10 of the molar value. One block for each compound: values may come before it. Calls of active or inactive are those of the source. No cut-off for these calls is given here.

What was measured:
HepG2 = test: Cytotoxicity against human HepG2 cells assessed as inhibition of cell growth at 10 uM measured after 24 hrs by MTT assay (reference value: 0.21%); type: functional
HCT-116 [1] = test: Cytotoxicity against human HCT-116 cells assessed as inhibition of cell growth at 10 uM measured after 24 hrs by MTT assay (reference value: 0.17%); type: functional
PA-1 [2] = test: Cytotoxicity against human PA-1 cells assessed as inhibition of cell growth at 10 uM measured after 24 hrs by MTT assay (reference value: 0.19%); type: functional
[3] = Cytotoxicity against human HEK cells assessed as inhibition of cell growth at 10 uM measured after 24 hrs by MTT assay (reference value: 0.11%); type: cell-based
[4] = molecular target: RAC-beta serine/threonine-protein kinase (Homo sapiens) (UniProt P31751); test: Binding affinity to Akt2 (unknown origin)
PANC-1 [5] = test: Inhibition of human Akt in human PANC-1 cells assessed as cell growth arrest at 50 uM measured after 18 hrs by Western blot assay; type: cell-based
[6] = Toxicity in 7 days post fertilize zebrafish embryo assessed as morphological abnormalities or atrioventricular blocks measured after 24 hrs by bright field microscopic analysis; set-up: species or system Danio rerio; details: in vivo, dose 1-100 µM
[7] = Hepatotoxicity in 4 days post fertilize zebra fish embryo measured 7 days post fertilization at 1 to 100 uM; type: toxicity, Danio rerio; details: zebrafish, dose 1-100 µM
[8] = molecular target: T1, RAC-alpha serine/threonine-protein kinase (Homo sapiens, UniProt P31749); test: Binding affinity to Akt1 (unknown origin)
[9] = molecular target: T1, RAC-alpha serine/threonine-protein kinase
Description: Inhibition of Akt-1 (unknown origin)

[10] = Toxicity in 7 days post fertilize zebrafish embryo assessed as morphological abnormalities at 1 to 100 uM after 24 hrs; set-up: species or system Danio rerio; details: in vivo, dose 1-100 µM
[11] = Toxicity in zebra fish embryo measured 5 days post fertilization by measuring teratogenicity at 1 to 100 uM; set-up: species or system Danio rerio; details: zebrafish, 120 h, dose 1-100 µM, time 5 day
[12] = Inhibition of Protein kinase A (unknown origin); set-up: species or system Homo sapiens
PANC-1 [13] = test: Inhibition of human Akt in human PANC-1 cells assessed as inhibition of Akt phosphorylation at 50 uM measured after 18 hrs by Western blot assay; type: cell-based
PANC-1 [14] = test: Cytotoxicity against human PANC-1 cells assessed as decrease in cell viability at 50 uM measured after 18 hrs by MTT assay; type: functional, cell-based
[15] = Toxicity in 7 days post fertilize zebrafish embryo assessed as death at 1 to 100 uM after 24 hrs; set-up: species or system Danio rerio; details: in vivo, dose 1-100 µM
[16] = Stability of compound assessed as parent compound remaining after 60 mins in rat liver microsomes; type: ADME, Microsome; details: read-out: Stabilty
[17] = Microsomal stability in rat liver microsomes assessed as intrinsic clearance; type: ADME, Microsome; details: read-out: CLH
[18] = Microsomal stability in rat liver microsomes assessed as half life; type: ADME, Microsome
PA-1 [19] = test: Cytotoxicity against human PA-1 cells assessed as inhibition of cell growth measured after 24 hrs by MTT assay; type: functional, cell-based; details: PA-1, 24 h
HCT-116 [20] = test: Cytotoxicity against human HCT-116 cells assessed as inhibition of cell growth measured after 24 hrs by MTT assay; type: functional, cell-based; details: HCT-116, 24 h

Chain of RAC-beta serine/threonine-protein kinase (Homo sapiens) (P31751 whole entry): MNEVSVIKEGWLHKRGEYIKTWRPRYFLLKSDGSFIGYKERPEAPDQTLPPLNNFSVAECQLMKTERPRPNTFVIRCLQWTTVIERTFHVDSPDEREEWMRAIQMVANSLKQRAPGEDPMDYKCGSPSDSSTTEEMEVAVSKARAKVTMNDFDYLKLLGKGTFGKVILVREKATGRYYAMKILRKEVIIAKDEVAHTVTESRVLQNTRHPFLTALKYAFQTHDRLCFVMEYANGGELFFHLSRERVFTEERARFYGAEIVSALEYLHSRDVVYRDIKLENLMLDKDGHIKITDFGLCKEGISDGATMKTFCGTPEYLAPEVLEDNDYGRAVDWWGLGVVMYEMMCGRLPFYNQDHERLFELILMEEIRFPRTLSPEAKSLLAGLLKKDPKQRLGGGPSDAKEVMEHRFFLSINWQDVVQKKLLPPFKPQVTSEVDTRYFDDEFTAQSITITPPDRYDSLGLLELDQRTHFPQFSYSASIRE
T1 sequence (P31749 whole entry): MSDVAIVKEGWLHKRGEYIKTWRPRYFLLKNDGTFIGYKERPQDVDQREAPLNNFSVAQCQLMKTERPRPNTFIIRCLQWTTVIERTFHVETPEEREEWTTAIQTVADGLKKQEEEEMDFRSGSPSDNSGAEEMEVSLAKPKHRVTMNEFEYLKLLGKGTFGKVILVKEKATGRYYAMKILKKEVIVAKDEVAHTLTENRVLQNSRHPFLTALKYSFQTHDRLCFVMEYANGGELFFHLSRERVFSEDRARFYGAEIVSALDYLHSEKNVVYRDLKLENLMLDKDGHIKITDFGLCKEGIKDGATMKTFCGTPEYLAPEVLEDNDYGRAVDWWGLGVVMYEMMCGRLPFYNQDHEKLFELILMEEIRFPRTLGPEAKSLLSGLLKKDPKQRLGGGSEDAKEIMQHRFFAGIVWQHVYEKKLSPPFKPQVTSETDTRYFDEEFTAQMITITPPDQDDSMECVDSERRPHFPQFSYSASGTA

SMILES: COc1cccc2c1/C(=C/COCc1c(-c3ccc(F)cc3)nc(N(C)S(C)(=O)=O)nc1C(C)C)OC2=O
- inhibition at 10 µM (HepG2): 26.5%
- inhibition at 10 µM (HCT-116 [1]): 25.4%
- inhibition at 10 µM (PA-1 [2]): 24.3%
- inhibition at 24 h, 10 µM [3]: 4.1%

SMILES: CC(C)c1nc(N(C)S(C)(=O)=O)nc(-c2ccc(F)cc2)c1COC/C=C1\OC(=O)c2ccccc21
- inhibition at 10 µM (HepG2): 19.3%
- inhibition at 10 µM (HCT-116 [1]): 20.2%
- inhibition at 10 µM (PA-1 [2]): 52.3%
- inhibition at 24 h, 10 µM [3]: 2.1%

SMILES: CC(C)c1nc(N(C)S(C)(=O)=O)nc(-c2ccc(F)cc2)c1COCc1cc2ccc(F)cc2c(=O)o1
- inhibition at 10 µM (HepG2): 33.2%
- inhibition at 10 µM (HCT-116 [1]): 36.9%
- inhibition at 10 µM (PA-1 [2]): 28.9%
- inhibition at 24 h, 10 µM [3]: 3.1%

SMILES: CC(C)c1nc(N(C)S(C)(=O)=O)nc(-c2ccc(F)cc2)c1COC/C=C1\OC(=O)c2cc(Cl)ccc21
- inhibition at 10 µM (HepG2): 21.3%
- inhibition at 10 µM (HCT-116 [1]): 24.7%
- inhibition at 10 µM (PA-1 [2]): 27%
- inhibition at 24 h, 10 µM [3]: 2.9%

SMILES: CC(C)c1nc(N(C)S(C)(=O)=O)nc(-c2ccc(F)cc2)c1COCc1cc2ccc(Br)cc2c(=O)o1
- inhibition at 10 µM (HepG2): 23.5%
- inhibition at 10 µM (HCT-116 [1]): 21.7%
- inhibition at 10 µM (PA-1 [2]): 18.7%
- inhibition at 24 h, 10 µM [3]: 2.8%

SMILES: CC(C)c1nc(N(C)S(C)(=O)=O)nc(-c2ccc(F)cc2)c1COCc1cc2ccc(Cl)cc2c(=O)o1
- inhibition at 10 µM (HepG2): 20.6%
- inhibition at 10 µM (HCT-116 [1]): 23.4%
- inhibition at 10 µM (PA-1 [2]): 20.9%
- inhibition at 24 h, 10 µM [3]: 2.3%

SMILES: COc1cc2c(cc1OC)/C(=C/COCc1c(-c3ccc(F)cc3)nc(N(C)S(C)(=O)=O)nc1C(C)C)OC2=O
- Activity [4]: -9.9 kcal/mol
- inhibition (PANC-1 [5]): Active
- Activity [6]: Non-Toxic
- Activity [7]: Non-Toxic
- Activity [8]: -10.9 kcal/mol
- inhibition at 10 µM (HepG2): 50.1%
- pIC50 [9]: 5.43
- inhibition at 10 µM (HCT-116 [1]): 53.7%
- Activity [10]: Non-Toxic
- Activity [11]: Non-Toxic
- inhibition at 10 µM (PA-1 [2]): 69.8%
- pIC50 [12]: < 5.00
- inhibition at 24 h, 10 µM [3]: 4.3%
- inhibition (PANC-1 [13]): Active
- inhibition (PANC-1 [14]): Active
- Activity [15]: Non-Toxic

SMILES: COc1cc2cc(COCc3c(-c4ccc(F)cc4)nc(N(C)S(C)(=O)=O)nc3C(C)C)oc(=O)c2cc1OC
- Activity [4]: -10.6 kcal/mol
- inhibition (PANC-1 [5]): Active
- Activity [6]: Non-Toxic
- remaining at 1 h [16]: 47.2%
- Activity [7]: Non-Toxic
- microsomal CLint [17]: 26.3 µL/min/mg
- Activity [8]: -11.3 kcal/mol
- inhibition at 10 µM (HepG2): 48.7%
- pIC50 [9]: 5.37
- half-life [18]: 110 min
- inhibition at 10 µM (HCT-116 [1]): 65.6%
- Activity [10]: Non-Toxic
- Activity [11]: Non-Toxic
- pIC50 (PA-1 [19]): 9.12
- inhibition at 10 µM (PA-1 [2]): 68.4%
- pIC50 [12]: < 5.00
- inhibition at 24 h, 10 µM [3]: 4.9%
- inhibition (PANC-1 [13]): Active
- inhibition (PANC-1 [14]): Active
- Activity [15]: Non-Toxic
- pIC50 (HCT-116 [20]): 8.35

SMILES: CC(C)c1nc(N(C)S(C)(=O)=O)nc(-c2ccc(F)cc2)c1COC/C=C1\OC(=O)c2cc(F)ccc21
- inhibition at 10 µM (HepG2): 26.7%
- inhibition at 10 µM (HCT-116 [1]): 18.3%
- inhibition at 10 µM (PA-1 [2]): 18.9%
- inhibition at 24 h, 10 µM [3]: 3.1%

SMILES: CC(C)c1nc(N(C)S(C)(=O)=O)nc(-c2ccc(F)cc2)c1COC/C=C1\OC(=O)c2ccc(F)cc21
- inhibition at 10 µM (HepG2): 27.5%
- inhibition at 10 µM (HCT-116 [1]): 19.8%
- inhibition at 10 µM (PA-1 [2]): 15.1%
- inhibition at 24 h, 10 µM [3]: 1.7%

SMILES: Cc1ccc2cc(COCc3c(-c4ccc(F)cc4)nc(N(C)S(C)(=O)=O)nc3C(C)C)oc(=O)c2c1
- inhibition at 10 µM (HepG2): 24.1%
- inhibition at 10 µM (HCT-116 [1]): 26%
- inhibition at 10 µM (PA-1 [2]): 28.4%
- inhibition at 24 h, 10 µM [3]: 3.2%

SMILES: Cc1ccc2c(c1C)/C(=C/COCc1c(-c3ccc(F)cc3)nc(N(C)S(C)(=O)=O)nc1C(C)C)OC2=O
- inhibition at 10 µM (HepG2): 21.6%
- inhibition at 10 µM (HCT-116 [1]): 18.9%
- inhibition at 10 µM (PA-1 [2]): 19.9%
- inhibition at 24 h, 10 µM [3]: 1.9%

SMILES: Cc1cc(Cl)cc2c1/C(=C/COCc1c(-c3ccc(F)cc3)nc(N(C)S(C)(=O)=O)nc1C(C)C)OC2=O
- inhibition at 10 µM (HepG2): 14.1%
- inhibition at 10 µM (HCT-116 [1]): 16%
- inhibition at 10 µM (PA-1 [2]): 18.4%
- inhibition at 24 h, 10 µM [3]: 2.2%

SMILES: COc1ccc2c(=O)oc(COCc3c(-c4ccc(F)cc4)nc(N(C)S(C)(=O)=O)nc3C(C)C)cc2c1
- inhibition at 10 µM (HepG2): 39.7%
- inhibition at 10 µM (HCT-116 [1]): 41.8%
- inhibition at 10 µM (PA-1 [2]): 40.1%
- inhibition at 24 h, 10 µM [3]: 3.4%

SMILES: CC(C)c1nc(N(C)S(C)(=O)=O)nc(-c2ccc(F)cc2)c1COC/C=C1\OC(=O)c2cccc(Cl)c21
- inhibition at 10 µM (HepG2): 22.1%
- inhibition at 10 µM (HCT-116 [1]): 25.5%
- inhibition at 10 µM (PA-1 [2]): 26.8%
- inhibition at 24 h, 10 µM [3]: 3.7%

SMILES: COc1ccc2c(c1)C(=O)O/C2=C\COCc1c(-c2ccc(F)cc2)nc(N(C)S(C)(=O)=O)nc1C(C)C
- inhibition at 10 µM (HepG2): 39.3%
- inhibition at 10 µM (HCT-116 [1]): 33.5%
- inhibition at 10 µM (PA-1 [2]): 46.5%
- inhibition at 24 h, 10 µM [3]: 3.2%

SMILES: CC(C)c1nc(N(C)S(C)(=O)=O)nc(-c2ccc(F)cc2)c1COC/C=C1\OC(=O)c2ccc(Cl)cc21
- inhibition at 10 µM (HepG2): 12.6%
- inhibition at 10 µM (HCT-116 [1]): 29.3%
- inhibition at 10 µM (PA-1 [2]): 19.4%
- inhibition at 24 h, 10 µM [3]: 3.3%

SMILES: CC(C)c1nc(N(C)S(C)(=O)=O)nc(-c2ccc(F)cc2)c1COC/C=C1\OC(=O)c2cc(Br)ccc21
- inhibition at 10 µM (HepG2): 20.4%
- inhibition at 10 µM (HCT-116 [1]): 13.6%
- inhibition at 10 µM (PA-1 [2]): 21.8%
- inhibition at 24 h, 10 µM [3]: 1.9%

SMILES: COc1ccc2c(c1)/C(=C/COCc1c(-c3ccc(F)cc3)nc(N(C)S(C)(=O)=O)nc1C(C)C)OC2=O
- inhibition at 10 µM (HepG2): 38.6%
- inhibition at 10 µM (HCT-116 [1]): 35.1%
- inhibition at 10 µM (PA-1 [2]): 38.3%
- inhibition at 24 h, 10 µM [3]: 3.8%

SMILES: Cc1ccc2c(c1)C(=O)O/C2=C\COCc1c(-c2ccc(F)cc2)nc(N(C)S(C)(=O)=O)nc1C(C)C
- inhibition at 10 µM (HepG2): 29.6%
- inhibition at 10 µM (HCT-116 [1]): 24.3%
- inhibition at 10 µM (PA-1 [2]): 22.5%
- inhibition at 24 h, 10 µM [3]: 1.6%

SMILES: CC(C)c1nc(N(C)S(C)(=O)=O)nc(-c2ccc(F)cc2)c1COCc1cc2cc(Cl)ccc2c(=O)o1
- inhibition at 10 µM (HepG2): 10.9%
- inhibition at 10 µM (HCT-116 [1]): 19.8%
- inhibition at 10 µM (PA-1 [2]): 16.8%
- inhibition at 24 h, 10 µM [3]: 1.3%

SMILES: COc1ccc2cc(COCc3c(-c4ccc(F)cc4)nc(N(C)S(C)(=O)=O)nc3C(C)C)oc(=O)c2c1
- inhibition at 10 µM (HepG2): 39.1%
- inhibition at 10 µM (HCT-116 [1]): 43.2%
- inhibition at 10 µM (PA-1 [2]): 38.3%
- inhibition at 24 h, 10 µM [3]: 3.7%

- Activity [4]: -8.6 kcal/mol
- Activity [8]: -8.8 kcal/mol
SMILES: COc1cccc2c1C(=O)c1c(O)c3c(c(O)c1C2=O)C[C@@](O)(C(=O)CO)C[C@@H]3O[C@H]1C[C@H](N)[C@H](O)[C@H](C)O1 [DOXORUBICIN]
- inhibition at 10 µM (HepG2): 57%
- inhibition at 10 µM (HCT-116 [1]): 61%
- inhibition at 10 µM (PA-1 [2]): 81.3%
